Reference: patent US20230024302A1, “2,3,5-TRISUBSTITUTED PYRAZOLO[1,5-A]PYRIMIDINE COMPOUNDS” (Arcus Biosciences, Inc., priority 2019, published 2023)
Where two headings read alike, the source gives them in different places.

Key:
[1] = target: T1, PI3Kγ (p120γ) (Homo sapiens, UniProt P48736); test: Inhibition of PI3K kinase activity (ADP Glo), PI3Kγ; conditions: read-out: biochemical potency (PI3Kγ IC50)
T1 construct: purchased Promega V1761
Method in brief: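 IC50 values come from a 4-parameter nonlinear fit of ADP-Glo luminescence, which measures ADP produced as PIP2 is phosphorylated to PIP3. The p120γ enzyme (2× stock 8 nM) sat with compound 1 h at rt before substrate (2× stocks: 50 μM ATP, 0.1 mg/ml PIP2) was added. Phosphorylation then proceeded 60 min at rt.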

[2] = target: T2, PI3Kγ (Homo sapiens, UniProt P48736); test: PI3Kγ cellular assay in THP-1 cells (AKT pS473 AlphaLISA); format: cell-based
T2 construct: host or cells: THP-1
T2 sequence (P48736 whole entry): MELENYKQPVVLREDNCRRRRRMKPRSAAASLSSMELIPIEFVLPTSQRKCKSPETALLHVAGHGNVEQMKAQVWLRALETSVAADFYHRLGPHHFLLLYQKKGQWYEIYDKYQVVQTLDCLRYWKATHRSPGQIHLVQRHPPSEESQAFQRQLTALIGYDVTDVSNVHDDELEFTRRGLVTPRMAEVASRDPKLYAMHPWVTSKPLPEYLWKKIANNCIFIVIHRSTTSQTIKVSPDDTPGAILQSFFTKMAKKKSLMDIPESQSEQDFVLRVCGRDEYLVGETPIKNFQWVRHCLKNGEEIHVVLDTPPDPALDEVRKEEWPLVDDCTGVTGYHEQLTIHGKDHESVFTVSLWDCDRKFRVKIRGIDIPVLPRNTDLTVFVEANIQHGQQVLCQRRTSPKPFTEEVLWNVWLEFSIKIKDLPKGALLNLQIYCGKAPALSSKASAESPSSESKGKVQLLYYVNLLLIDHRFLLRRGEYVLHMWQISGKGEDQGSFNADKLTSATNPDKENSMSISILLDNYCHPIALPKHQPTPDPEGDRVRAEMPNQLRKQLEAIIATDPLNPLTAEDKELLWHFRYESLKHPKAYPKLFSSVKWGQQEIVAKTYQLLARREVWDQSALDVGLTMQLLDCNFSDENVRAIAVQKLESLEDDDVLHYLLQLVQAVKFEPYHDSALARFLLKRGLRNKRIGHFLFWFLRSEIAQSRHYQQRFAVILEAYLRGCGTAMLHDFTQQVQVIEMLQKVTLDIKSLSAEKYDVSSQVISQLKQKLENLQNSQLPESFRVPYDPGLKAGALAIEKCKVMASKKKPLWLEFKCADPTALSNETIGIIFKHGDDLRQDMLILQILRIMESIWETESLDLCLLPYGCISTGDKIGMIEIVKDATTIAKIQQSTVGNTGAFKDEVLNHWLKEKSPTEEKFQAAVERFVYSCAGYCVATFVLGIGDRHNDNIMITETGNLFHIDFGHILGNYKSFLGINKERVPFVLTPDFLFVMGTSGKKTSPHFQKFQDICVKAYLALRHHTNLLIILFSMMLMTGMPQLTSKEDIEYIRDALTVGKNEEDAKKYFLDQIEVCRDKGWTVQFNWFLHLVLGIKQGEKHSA
Method in brief: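 Endogenous AKT S473 phosphorylation, detected by AlphaLISA in lysates, serves as the PI3Kγ activity read-out in stimulated, serum-starved THP-1 cells (1.8×10^5/well).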

[3] = Table 2, rhMCP-1 stimulated AKT pS473, read-out: cellular potency (PI3Kγ IC50)
[4] = Table 6, rhMCP-1 stimulated AKT pS473, read-out: cellular potency (PI3Kγ IC50)
[5] = Table 1, rhMCP-1 stimulated AKT pS473, read-out: cellular potency (PI3Kγ IC50)

T1 sequence (P48736 whole entry): as above

SMILES | IC50 ([1]; Table 2, p120γ) [nM] | IC50 [2, 3] [nM] | further results
COc1ccccc1NC(=O)c1c(N)nn2ccc(-c3cc4c(c(NS(C)(=O)=O)c3)C(=O)N([C@@H](C)C3CC3)C4)nc12 [Example 398] |  |  | IC50 [1]: < 100 nM; IC50 ([2]; AKT pS473, read-out: cellular potency (PI3Kγ IC50)): > 1000 nM
Cc1cc(-c2ccn3nc(N)c(C(=O)N[C@H]4CCNC4=O)c3n2)cc2c1C(=O)N([C@@H](C)C1CC1)C2 [Example 225] | < 100 | 100 to 1000 | 
Cc1cc(-c2ccn3nc(N)c(C(=O)NCCO)c3n2)cc2c1C(=O)N([C@@H](C)C1CC1)C2 [Example 186] | < 100 | 100 to 1000 | 
Cc1cc(-c2ccn3nc(N)c(C(=O)NC4CCN(C)CC4)c3n2)cc2c1C(=O)N([C@@H](C)C1CC1)C2 [Example 209] | < 100 | 100 to 1000 | 
C[C@@H](C1CC1)N1Cc2cc(-c3ccn4nc(N)c(C(=O)Nc5cccnc5)c4n3)cc(C3CC3)c2C1=O [Example 452] |  |  | IC50 ([1]; Table 6, p120γ): < 100 nM; IC50 [2, 4]: 100 to 1000 nM
Cc1cc(-c2ccn3nc(N)c(C(=O)N[C@@H](C(N)=O)c4ccccc4)c3n2)cc2c1C(=O)N([C@@H](C)C1CC1)C2 [Example 245] | < 100 | 100 to 1000 | 
Cc1cc(-c2ccn3nc(N)c(C(=O)NC4CC4)c3n2)cc2c1C(=O)N([C@@H]1CCC[C@H](O)C1)C2 [Example 324] | < 100 | 100 to 1000 | 
Cc1cc(-c2ccn3nc(N)c(C(=O)N4CCCC4CO)c3n2)cc2c1C(=O)N(C(C)C1CC1)C2 (stereo not shown) [Example 288] | 100 to 1000 | > 1000 | 
C[C@@H](C1CC1)N1Cc2cc(-c3ccn4nc(N)c(C(=O)N[C@H]5C[C@H](O)C5)c4n3)cc(S(C)(=O)=O)c2C1=O [Example 445] |  |  | IC50 ([1]; Table 6, p120γ): < 100 nM; IC50 [2, 4]: 100 to 1000 nM
Cc1cc(-c2ccn3nc(N)c(C(=O)N[C@H](C)C4CC4)c3n2)cc2c1C(=O)N([C@@H](C)C1CC1)C2 [Example 278] | < 100 | > 1000 | 
CC[C@H](N1Cc2cc(-c3ccn4nc(N)c(C(=O)NC5COC5)c4n3)cc(NS(C)(=O)=O)c2C1=O)C(F)(F)F [Example 123, 2-Amino-5-{7-methanesulfonamido-1-oxo-2-[(2S)-1,1,1-trifluorobutan-2-yl]-2,3-dihydro-1H-isoindol-5-yl}-N-(oxetan-3-yl)pyrazolo[1,5-a]pyrimidine-3-carboxamide] |  |  | IC50 ([1]; Table 1, p120γ): < 100 nM; IC50 [2, 5]: < 100 nM
C[C@@H](C1CC1)N1Cc2cc(-c3ccn4nc(N)c(C(=O)NC5CC5)c4n3)cnc2C1=O [Example 455] |  |  | IC50 ([1]; Table 7, p120γ): < 100 nM; IC50 ([2]; Table 7, rhMCP-1 stimulated AKT pS473, read-out: cellular potency (PI3Kγ IC50)): 100 to 1000 nM
C[C@@H](C1CC1)N1Cc2cc(-c3ccn4nc(N)c(C(=O)N[C@@H]5CCC[C@H](N)C5)c4n3)cc(OC(F)(F)F)c2C1=O [Example 33, 2-Amino-N-[(1R,3S)-3-aminocyclohexyl]-5-{2-[(1S)-1-cyclopropylethyl]-1-oxo-7-(trifluoromethoxy)-2,3-dihydro-1H-isoindol-5-yl}pyrazolo[1,5-a]pyrimidine-3-carboxamide] |  |  | IC50 ([1]; Table 1, p120γ): < 100 nM; IC50 [2, 5]: < 100 nM
Cc1cc(NC(=O)c2c(N)nn3ccc(-c4cc(C)c5c(c4)CN([C@@H](C)C4CC4)C5=O)nc23)ccc1C(=O)O [Example 293] | < 100 | 100 to 1000 | 
C[C@@H](C1CC1)N1Cc2cc(-c3ccn4nc(N)c(C(=O)NC5COC5)c4n3)cc(OC(F)(F)F)c2C1=O [Example 21, 2-Amino-5-{2-[(1S)-1-cyclopropylethyl]-1-oxo-7-(trifluoromethoxy)-2,3-dihydro-1H-isoindol-5-yl}-N-(oxetan-3-yl)pyrazolo[1,5-a]pyrimidine-3-carboxamide] |  |  | IC50 ([1]; Table 1, p120γ): < 100 nM; IC50 [2, 5]: < 100 nM
C[C@@H](C1CC1)N1Cc2cc(-c3ccn4nc(N)c(C(=O)Nc5ccc(C(C)(C)O)cc5)c4n3)cc(OC(F)(F)F)c2C1=O [Example 419] |  |  | IC50 ([1]; Table 6, p120γ): < 100 nM; IC50 [2, 4]: 100 to 1000 nM
Cc1cc(-c2ccn3nc(N)c(C(=O)NC[C@H]4CCCO4)c3n2)cc2c1C(=O)N([C@@H](C)C1CC1)C2 [Example 269] | < 100 | 100 to 1000 | 
